Reference: paper PMC3907537, “Evaluation of the Endothelin Receptor Antagonists Ambrisentan, Bosentan, Macitentan, and Sitaxsentan as Hepatobiliary Transporter Inhibitors and Substrates in Sandwich-Cultured Human Hepatocytes” (PLoS ONE, 2014)

Key:
[1] = system: sandwich-cultured human hepatocytes; assay: Effect of ERAs on endogenous glycocholic acid (GCA) distribution in sandwich-cultured human hepatocytes; format: cell-based; details: 24 h, mean ± standard error, n=3 human livers
Description: (§1) Sandwich-cultured human hepatocytes were obtained from Celsis/IVT (Baltimore, MD) or Life Technologies (Durham, NC). Donors were male (n = 3) and female (n = 1) between the ages of 31 and 62 years old. Hepatic uptake, biliary excretion and in vitro biliary clearance (Clb) were determined using the B-CLEAR® hepatocyte sandwich culture model as described by Liu et al., 1999 [34]. In this system, hepatocytes form functional bile canalicular networks while maintaining the expression and function of key uptake and efflux transporters. The canalicular system of bile pockets remains separate from the cellular culture media due to tight junctions between cells. The integrity of these tight junctions is maintained in the presence of calcium (Plus (+) buffer) while in the absence of calcium (Minus (−) buffer), these tight junctions open and release the contents of the canalicular network into the media.
(§2) Incubation solutions containing ERA (1, 10 and 100 µM) were prepared in cell culture medium. On the sixth day of culturing of the sandwich-cultured hepatocytes, cell culture medium was removed from the wells and incubation solutions containing the test ERAs were added to the cells. The cells were incubated with ERA solution for 24 h at 37°C. After the exposure, the incubation solutions were removed and the cells were rinsed with Plus (+) or Minus (−) buffer. The buffer solutions were then removed and the cells were incubated with fresh Plus (+) or Minus (−) buffer for 5 min at 37°C. Following this 5 minute incubation, the buffer solutions were collected and any remaining buffers were removed. The cells were then washed three times with ice-cold Plus (+) buffer and the plates were frozen at −80°C until processed for bioanalysis.
(§3) Study samples were stored in their original 24-well plates at −80°C until prepared for analysis. A volume of 500 µL of cell lysis solution (70∶30 methanol:water) containing 25 nM internal standard was added to each well and mixed for 20 min of mixing. The volume in each well was then transferred to a 96-well filter plate stacked on a Greiner deep well collection plate. The filter plate/collection plate was then centrifuged at 2000 rcf for 5 min. The filtrate was then evaporated to dryness under nitrogen. Samples were reconstituted in 200 µL of sample diluent (60∶40 methanol:10 mM ammonium acetate, native pH), sealed, and placed on a plate shaker for 15 min. These samples were then transferred to a Whatman 96-well 0.45 µm PVDF filter plate stacked on a Costar 3956 plate (HPLC injection plate), centrifuged at 2000 rcf for 2–3 min, and sealed with a silicon cap mat prior to LC-MS/MS analysis. d8-TCA standard spiking solutions were prepared in 50∶50 methanol:water. For a given lysate standard or control, 10 µL was added to each well of a previously frozen analytical plate. Standards representing 0.5–100 pmoles/well and QC’s at the LLQ and ULQ were prepared. These lysate standards and controls were then further processed as described above for unknown study samples. Prepared samples were filtered and analyzed by LC-MS/MS using a Shimadzu binary HPLC system (Columbia, MD) and tandem mass spectrometry using Thermo Electron TSQ® Quantum Discovery MAX™ (Waltham, MA) with an Ion Max ESI source operating in negative ion electrospray ionization mode. Results for unknowns and QCs were calculated using a standard curve based on an internal standard processing method.
Statistical comparisons across ERA treatments were performed using analysis of variance (ANOVA) with Fisher’s PLSD post hoc analysis (Statview 5.0, SAS Institute, Cary NC); statistical significance was considered to be P<0.05. All mass values were normalized to mg protein by taking the average protein mass in the taurocholate plate determined using a BCA protein assay (Pierce Biotechnology, Rockford, IL). […]

NTCP = system: NTCP; parameters: method as in PMID 20628435; details: concentrations tested 2, 20, and 100 µM, Hartman et al. ref 29; cited from earlier work
[2] = system: sandwich-cultured human hepatocytes; assay: Effect of ERAs on endogenous glycochenodeoxycholic acid (GCDCA) distribution in sandwich-cultured human hepatocytes; format: cell-based; details: 24 h, mean ± standard error, n=3 human livers
Description: as §1, with “Donors were male (n = 3) and female (n = 1) between the ages of 31 and 62 years old.” left out
as §2, §3
Statistical comparisons across ERA treatments were performed using analysis of variance (ANOVA) with Fisher’s PLSD post hoc analysis (Statview 5.0, SAS Institute, Cary NC); statistical significance was considered to be P<0.05. All mass values were normalized to mg protein by taking the average protein mass in the taurocholate plate determined using a BCA protein assay (Pierce Biotechnology, Rockford, IL). Cellular accumulation determined in Minus (−) buffer (Accumulation Minus (−) Buffer) represents the total mass of analyte inside the hepatocyte at the end of the incubation time period. […]

[3] = system: sandwich-cultured human hepatocytes; assay: Hepatic disposition (intracellular accumulation) of ERAs in sandwich-cultured human hepatocytes; format: in vitro ADME; details: sandwich-cultured human hepatocytes, 1, 10 and 100 µM, 10 min, n = 3 donors
Description: as §1
Incubation solutions containing ERA (1, 10 and 100 µM) were prepared in Plus (+) buffer. Cell culture medium was removed from the wells and the cells were washed twice with Plus (+) or Minus (−) buffer. The wash solutions were then removed and replaced with fresh Plus (+) or Minus (−) buffer. The cells were conditioned for 10 min at 37°C. After the 10 min exposure, the buffer solutions were removed and replaced with the incubation solutions and incubated for 10 min at 37°C. Following 10 min incubation, the incubation solutions were removed and the cells were then washed three times with ice-cold Plus (+) Buffer. The plates were frozen at −80°C until processed for bioanalysis.
Study samples were stored in their original 24-well plates at −80°C until prepared for analysis. A volume of 500 µL of cell lysis solution (70∶30 methanol:water) containing 25 nM internal standard was added to each well and mixed for 20 min of mixing. […] Prepared samples were filtered and analyzed by LC-MS/MS using a Shimadzu binary HPLC system (Columbia, MD) and tandem mass spectrometry using Thermo Electron TSQ® Quantum Discovery MAX™ (Waltham, MA) with an Ion Max ESI source operating in negative ion electrospray ionization mode. Results for unknowns and QCs were calculated using a standard curve based on an internal standard processing method.
Data calculations were performed using Microsoft Excel, 2010 with all values reported as mean ± standard deviation (SD). […] All mass values were normalized to mg protein by taking the average protein mass in the taurocholate plate determined using a BCA protein assay (Pierce Biotechnology, Rockford, IL). Cellular accumulation determined in Minus (−) buffer (Accumulation Minus (−) Buffer) represents the total mass of analyte inside the hepatocyte at the end of the incubation time period. […]

SMILES	GCA BEI (% Control) ([1]; 1 µM)	GCA Cellular Accumulation (% Control) ([1]; 1 µM)	GCA Medium Concentration (% Control) ([1]; 1 µM)	GCA Total Accumulation (% Control) ([1]; 1 µM)	GCA BEI (% Control) ([1]; 10 µM)	GCA Cellular Accumulation (% Control) ([1]; 10 µM)	GCA Medium Concentration (% Control) ([1]; 10 µM)	GCA Total Accumulation (% Control) ([1]; 10 µM)	GCA BEI (% Control) ([1]; 100 µM)	GCA Cellular Accumulation (% Control) ([1]; 100 µM)	GCA Medium Concentration (% Control) ([1]; 100 µM)	GCA Total Accumulation (% Control) ([1]; 100 µM)	GCDCA BEI (% Control) ([2]; 1 µM)	GCDCA Cellular Accumulation (% Control) ([2]; 1 µM)	GCDCA Medium Concentration (% Control) ([2]; 1 µM)	GCDCA Total Accumulation (% Control) ([2]; 1 µM)	GCDCA BEI (% Control) ([2]; 10 µM)	GCDCA Cellular Accumulation (% Control) ([2]; 10 µM)	GCDCA Medium Concentration (% Control) ([2]; 10 µM)	GCDCA Total Accumulation (% Control) ([2]; 10 µM)	other results
COC(c1ccccc1)(c1ccccc1)[C@H](Oc1nc(C)cc(C)n1)C(=O)O [ambrisentan]	90.3 ± 13.5 % Control	93.0 ± 9.3 % Control	101.0 ± 3.5 % Control	87.2 ± 10.8 % Control	75.4 ± 8.6 % Control	88.2 ± 15.5 % Control	91.3 ± 7.5 % Control	73.0 ± 8.4 % Control	65.9 ± 6.8 % Control	48.8 ± 10.8 % Control	95.7 ± 6.7 % Control	39.1 ± 11.9 % Control	95.1 ± 16.3 % Control	104.0 ± 3.0 % Control	110.0 ± 7.6 % Control	103.0 ± 8.1 % Control	81.3 ± 11.0 % Control	83.6 ± 11.6 % Control	109.0 ± 16.0 % Control	75.7 ± 8.0 % Control	inhibition of NTCP (NTCP): did not; GCDCA BEI (% Control) ([2]; 100 µM): 76.0 ± 38.1 % Control; GCDCA Cellular Accumulation (% Control) ([2]; 100 µM): 27.6 ± 3.4 % Control; GCDCA Medium Concentration (% Control) ([2]; 100 µM): 103.0 ± 2.3 % Control; GCDCA Total Accumulation (% Control) ([2]; 100 µM): 26.3 ± 5.7 % Control
COc1ccccc1Oc1c(NS(=O)(=O)c2ccc(C(C)(C)C)cc2)nc(-c2ncccn2)nc1OCCO [bosentan]	85.9 ± 12.6 % Control	78.4 ± 14.5 % Control	99.6 ± 2.1 % Control	71.9 ± 12.9 % Control	32.3 ± 30.1 % Control	55.1 ± 14.4 % Control	85.5 ± 6.3 % Control	35.9 ± 5.3 % Control	35.4 ± 13.9 % Control	25.6 ± 8.4 % Control	77.1 ± 10.1 % Control	17.4 ± 6.1 % Control	94.5 ± 12.4 % Control	88.0 ± 5.9 % Control	114.0 ± 9.9 % Control	86.8 ± 3.5 % Control	65.7 ± 21.7 % Control	54.8 ± 4.4 % Control	109.0 ± 14.7 % Control	47.2 ± 2.3 % Control	hepatocyte accumulation relative to the extracellular test concentration [3]: ~20 x; inhibition of NTCP (NTCP): inhibited; GCDCA BEI (% Control) ([2]; 100 µM): 56.8 ± 11.9 % Control; GCDCA Cellular Accumulation (% Control) ([2]; 100 µM): 30.3 ± 6.7 % Control; GCDCA Medium Concentration (% Control) ([2]; 100 µM): 126.0 ± 7.9 % Control; GCDCA Total Accumulation (% Control) ([2]; 100 µM): 25.4 ± 6.0 % Control
CCCNS(=O)(=O)Nc1ncnc(OCCOc2ncc(Br)cn2)c1-c1ccc(Br)cc1 [macitentan]	96.9 ± 17.6 % Control	81.7 ± 10.7 % Control	101.0 ± 3.3 % Control	84.6 ± 12.6 % Control	54.9 ± 10.3 % Control	62.7 ± 10.5 % Control	88.9 ± 1.8 % Control	46.5 ± 8.3 % Control	39.4 ± 12.3 % Control	38.1 ± 13.6 % Control	52.6 ± 1.2 % Control	24.7 ± 7.8 % Control	98.7 ± 14.8 % Control	88.7 ± 0.8 % Control	111.0 ± 9.0 % Control	90.0 ± 4.0 % Control	89.4 ± 14.2 % Control	52.1 ± 2.6 % Control	98.7 ± 10.1 % Control	48.9 ± 0.9 % Control	hepatocyte accumulation relative to the extracellular test concentration [3]: > 100 x; hepatocyte accumulation relative to the extracellular test concentration ([3]; listed as Macitentan): ~100 x; GCDCA BEI (% Control) ([2]; 100 µM): 37.5 ± 21.9 % Control; GCDCA Cellular Accumulation (% Control) ([2]; 100 µM): 11.4 ± 3.2 % Control; GCDCA Medium Concentration (% Control) ([2]; 100 µM): 51.8 ± 7.1 % Control; GCDCA Total Accumulation (% Control) ([2]; 100 µM): 8.38 ± 1.4 % Control
